Activity calls are given as the source filed them. The rule behind the calls is not given here.
Key:
RAW264.7 [1] = assay: Antiinflammatory activity against LPS-induced NO production in mouse RAW264.7 cells assessed as reduction in nitrite level at 50 uM preincubated for 15 mins prior to LPS treatment by Griess method; format: functional
[2] = Cytotoxicity in mouse RAW264.7 cells assessed as cell survival at 50 uM; format: cell-based; settings: read-out: Survival
RAW264.7 [3] = assay: Antiinflammatory activity against LPS-induced NO production in mouse RAW264.7 cells assessed as reduction in nitrite level preincubated for 15 mins prior to LPS treatment by Griess method; format: functional, cell-based
HEK293 [4] = assay: Inhibition of TNFalpha-induced NF-kappaB activity expressed in human HEK 293 cells at 50 uM after 6 hrs by luciferase reporter gene assay; format: cell-based
[5] = Cytotoxicity in human HEK293 cells assessed as survival at 50 uM; format: cell-based; settings: read-out: Survival
[6] = (§1) Inhibition of TNFalpha-induced NF-kappaB activity expressed in human HEK 293 cells after 6 hrs by luciferase reporter gene assay; format: cell-based; settings: HEK293, 6 h
HEK293 [7] = assay: as §1; format: cell-based

SMILES | inhibition at 50 µM (RAW264.7 [1]) [%] | viability at 50 µM [2] [%] | IC50 (RAW264.7 [3]) [µM] | inhibition (HEK293 [4]) [%] | viability at 50 µM [5] [%] | IC50 [6] [µM] | inhibition (HEK293 [7])
C=C(C)C(=O)O[C@H]1C[C@@H](C)[C@]2(OC)CC[C@](C)(/C=C3/OC(=O)C(COC(C)=O)=C31)O2 | 98.8 | 6.3 | 1.5 | 94.2 | 39.1 | 13.6 | 
C/C=C(\C)C(=O)O[C@H]1C[C@@H](C)[C@]2(O)CC[C@](C)(/C=C3/OC(=O)C(COC(C)=O)=C31)O2 | 98 | 31.1 | 2 | 99.6 | 102 | 0.6 | 
C/C=C(\C)C(=O)O[C@H]1C[C@@H](C)[C@]2(OC)CC[C@](C)(/C=C3/OC(=O)C(COC(C)=O)=C31)O2 | 99 | 5.4 | 1.2 | 97.6 | 16.5 | 12.8 | 
Cc1ccc(S(=O)(=O)/C=C/C#N)cc1 |  |  |  |  |  | 2 | 
C/C=C(\C)C(=O)O[C@H]1C[C@@H](C)[C@]2(O)CC[C@](C)(/C=C3/OC(=O)C(CO)=C31)O2 (relative stereo) | 99.8 | 32.2 | 5.7 | 98.6 | 87.6 | 3.1 | 
CNC(=N)NCCC[C@H](N)C(=O)O |  |  | 25.1 |  |  |  | 
CO[C@]12CC[C@](C)(/C=C3/OC(=O)C(CO)=C3[C@@H](O)C[C@H]1C)O2 | 84.2 | 134 | 28.1 | 33.4 | 91.9 |  | inactive
C=C(C)C(=O)O[C@H]1C[C@@H](C)[C@]2(O)CC[C@](C)(/C=C3/OC(=O)C(COC(C)=O)=C31)O2 | 99.2 | 31.1 | 6.6 | 95.8 | 95.1 | 5.2 | 
CC(=O)OCC1=C2/C(=C\[C@@]3(C)CC[C@](O)(O3)[C@H](C)C[C@@H]2O)OC1=O | 99.3 | 18 | 2.7 | 90.3 | 55 | 10.2 | 
C/C=C(\C)C(=O)O[C@H]1C[C@@H](C)[C@]2(OC)CC[C@](C)(/C=C3/OC(=O)C(CO)=C31)O2 | 99.8 | 15.6 | 2.4 | 94.1 | 9.3 | 1.6 | 
C[C@@H]1C[C@H](O)C2=C(CO)C(=O)O/C2=C/[C@@]2(C)CC[C@]1(O)O2 | 82.6 | 121 | 24.7 | 65.6 | 100 | 1.9 | 
Cc1ccc(S(=O)(=O)N[C@@H](Cc2ccccc2)C(=O)CCl)cc1 [TPCK] |  |  |  |  |  | 3.8 | 
